{"source": "patent US8445461B2", "about": "“Pharmaceutical composition for meniere's disease” (Setsuko Takeda, priority 2007, dated 2013)", "key": {"[1]": {"test_system": "guinea pigs of normal Prayer's reflex", "settings": "cited from earlier work; for Plasma AVP: continuous subcutaneous administration"}, "[2]": {"test_system": "experimental endolymphatic hydrops", "experiment": "Endolymphatic hydrops decompression effect: IR-L, IR-S and regression lines in the operated ear", "type": "in vivo, guinea pigs", "settings": "active agent 2.8 g/kg oral, alone or with additive; for Regression line IR-S vs IR-L: Y-intercept / Regression line IR-S vs IR-L: slope: operated ears, 3 hours after; for IR-L (%) increase ratio of the length of Reissner's membrane / IR-S (%) increase ratio of the cross-sectional area of the scala media: operated side, perfusion 3 hours after", "description": "The endolymphatic hydrops-decompression effect of saccharides or sugar alcohols was evaluated by assaying as below in triplicate. Firstly, guinea pigs received the surgical obliteration of the endolymphatic sac in the left ear to prepare “experimental model animals with endolymphatic hydrops”. The surgical obliteration of the endolymphatic sac was carried out by burning the extraskeletal portion in the endolymphatic sac with a bipolar electrocoagulator. An endolymphatic sac plays an important role in the absorption of endolymphatic fluid. The inhibition of absorption of endolymphatic fluid was caused by burning the endolymphatic sac to prepare an experimental endolymphatic hydrops. Those hydrops are progressively formed. The size of hydrops becomes constant 2 weeks to month after the surgery and maintained for several months. In detail, see Non-patent Reference 8 for the surgery.\nAfter 1 month, they were divided into 3 groups: Group 2-1 (groups 1-6), 60 animals; Group 2-2 (groups 7-10), 40 animals; and Group 2-3 (groups 11-20), […]. The animals in Group 2-1 received saccharides or sugar alcohols alone (Reference Example 5). The animals in Group 2-2 orally received saccharides or sugar alcohols added polysaccharides. The animals in Group 2-3 received other combinations of saccharides or sugar alcohols added polysaccharides. Animals were sacrificed after the oral administration and the observation and the assessment the gastrointestinal condition, and observed the morphological change of the cochlea mainly in the operated side (left side), in particular of the endolymphatic hydrops decompression effect.\nI were obtained left sides of the temporal bones immediately following fixation and kept them in 10% formalin solution for 10 days or more. They were decalcified with 5% trichloroacetic acid and dehydrated with alcohol in increasing concentration, then embedded in paraffin and celloidin. The prepared blocks were cut serially in the horizontal plane. The mid-modiolar sections were stained in hematoxylin and eosin and studied under a light microscope. For the quantitative assessment of changes of the endolymphatic space, the change ratios of the length of Reissner's membrane and the cross-sectional area of the scala media in each turn were measured from the mid-modiolar sections of the cochlea.\nFrom these parameters, the increase ratios (%) of the length of Reissner's membrane (IR-L) and the cross-sectional area (%) of the scala media (IR-S) of a total of four turns were calculated according to the equation as described below:\nThe increase ratio of the length of Reissner's membrane (IR-L)=100×Σ(Lx−L*x)/ΣL*x (x: first, second, third and fourth turns)\nThe increase ratio of the cross-section area of the scala media (IR-S)=100×Σ(Sx−S*x)/ΣS*x (x: first, second, third and fourth turns)\nSince almost no difference is shown in the regression lines of each group, it cannot be understood that there is the decompression effect of erythritol alone. When endolymphatic hydrops is formed, the cross-sectional area of scala media and the length of Reissner's membrane will increase. It can be assumed from FIG. 1 that there is statistically a primary correlation between both of them in the operated side in the control group. The regression lines are; IR-S (distilled water)=4.011+1.212*IR-L (distilled water); R2=0.987, IR-S (1 hour after)=5.409+1.1*IR-L (1 hour after); R2=0.903, IR-S (2 hours after)=1.125+0.992*IR-L (2 hours after); R2=0.98, IR-S (3 hours after)=2.407+1.309*IR-L (3 hours after); R2=0.974, IR-S (6 hours after)=7.36+1.147*IR-L (6 hours after); R2=0.895, IR-S (12 hours after)=8.089+1.152*IR-L (12 hours after); R2=0.918.\nThe difference of decompression effect on endolymphatic hydrops depending on dose of pectin added and time-course of the decompression effect can hardly determined by comparing and analyzing the average and standard deviation of IR-L and IR-S in the operated side in each groups. […]"}, "[3]": {"test_system": "endolymphatic space", "settings": "cited from earlier work; for Morphological change in the normal ear: glycerol 2.8 g/kg oral"}, "[4]": {"test_system": "guinea pigs excreting normal feces", "experiment": "Antidiarrheal effect: observation of feces after oral administration of saccharides or sugar alcohols with or without polysaccharides (Example 1)", "type": "in vivo", "description": "The criteria for analyzing the conditions of feces (hardness, shape and spaces of feces in the intestine) are as shown in Table 2:\nThe hardness and microscopic findings of feces from the group administered with distilled water were assessed as “Normal” scoring 3, the feces having normal shape and the shape could rather easily change by pushing with fingers were assessed as “Slightly soft” scoring 2, those of which the shape had already changed or it could quite easily change by pushed with fingers were assessed as “Soft” scoring 1, and those of which the shape is muddy or watery or of no shape were assessed “Muddy” scoring 0. To be precese, there are no watery feces because of the nature of diets and thus the muddy feces correspond to watery and muddy feces in human.\nSince the muddy feces comprise large content of water, they induce the high abdominal pressure and the flatulence and distension. […] In the case of gas generation, it appears that noxious symptom such as the flatulence and distension are synergistically deteriorated. Therefore, we assessed not only based on the hardness of feces, but also the size, smoothness of the surface and amount of feces.\nIn these experiments, I observed is the diarrhea caused by saccharides or sugar alcohols and antidiarrhreal effect of saccharides. Guinea pigs orally received saccharides or sugar alcohols, for example tetrose such as erythritol, pentose such as xylitol or xylose, hexose such as isosorbitol or the like in combination with or without polysaccharides for observation of the feces up to 6 hours after the administration.\nGuinea pigs (body weight 280 to 320 g, normal feces) were divided into four groups: for Group 1-a, xylitol alone (Reference Example 1), or xylitol and xanthan gum or pectin; for Group 1-b, xylose alone (Reference Example 2), xylose and xanthan gum or pectin; for Group 1-c, erythritol alone (Reference Example 3), erythritol and pectin, erythritol and xanthan gum, or erythritol, pectin and natural aluminum silicate gel or calcium carbonate; and for Group 1-d, isosorbitol alone (Reference Example 4), or isosorbitol and xanthan gum or pectin were orally administered, respectively. The compounds are dissolved in distilled water and 8 ml/kg of said solution were administered as a single dose.\nThe feces were observed during 6 hours after the administration. When the animals fell into the most serious condition, the hardness and shape of the feces from said animals were assessed as the effect by saccharides or sugar alcohols in the animals."}, "[5]": {"settings": "saccharide or sugar alcohol 2.8 g/kg oral, alone or with additive, feces observed for 6 hours"}, "[6]": {"settings": "active agent 1.4 g/kg oral, within 6 hours"}, "[7]": {"settings": "active agent 2.1 g/kg oral, within 6 hours"}, "[8]": {"settings": "active agent 2.8 g/kg oral, alone or with additive of the label"}, "[9]": {"settings": "active agent 2.8 g/kg oral, alone or with additives of the label, most serious condition within 6 hours"}}, "note": "Several values for one entry are separate records, joined by “and”; a condition that tells them apart may be missing. Equal entries are not always repeated. Where two headings read alike, the source gives them in different places.", "data": [{"compound": "NC(=O)CC[C@@H]1NC(=O)[C@H](Cc2ccccc2)NC(=O)[C@H](Cc2ccc(O)cc2)NC(=O)[C@@H](N)CSSC[C@@H](C(=O)N2CCC[C@H]2C(=O)N[C@@H](CCCN=C(N)N)C(=O)NCC(N)=O)NC(=O)[C@H](CC(N)=O)NC1=O", "note": "[AVP, arginine vasopressin]", "values": [{"measurement": "Plasma AVP", "setting": "[1]; AVP 0.2 mU/kg/min", "result": "2.2 ± 0.4", "unit": "pg/mL"}, {"measurement": "Increase ratio (%) of the cross-sectional area of the scala media", "setting": "[1]; AVP 0.2 mU/kg/min", "result": "4.4 ± 0.7", "unit": "%"}, {"measurement": "Plasma AVP", "setting": "[1]; AVP 0.4 mU/kg/min", "result": "3.5 ± 1.8", "unit": "pg/mL"}, {"measurement": "Increase ratio (%) of the cross-sectional area of the scala media", "setting": "[1]; AVP 0.4 mU/kg/min", "result": "10.4 ± 1.8", "unit": "%"}, {"measurement": "Plasma AVP", "setting": "[1]; AVP 1.0 mU/kg/min", "result": "14.0 ± 3.9", "unit": "pg/mL"}, {"measurement": "Increase ratio (%) of the cross-sectional area of the scala media", "setting": "[1]; AVP 1.0 mU/kg/min", "result": "17.4 ± 7.9", "unit": "%"}, {"measurement": "Formation of endolymphatic hydrops", "setting": "[1]; AVP 1 mU/kg/minute, continuous, mini-pump subcutaneously", "result": "apparently produced endolymphatic hydrops"}]}, {"compound": "OCC(O)CO", "note": "[Gly alone, glycerol]", "values": [{"measurement": "Regression line IR-S vs IR-L: Y-intercept", "setting": "[2]", "result": "−2.455"}, {"measurement": "Regression line IR-S vs IR-L: slope", "setting": "[2]", "result": 0.887}, {"measurement": "IR-L (%) increase ratio of the length of Reissner's membrane", "setting": "[2]", "result": "37.4 ± 31.2", "unit": "%"}, {"measurement": "IR-S (%) increase ratio of the cross-sectional area of the scala media", "setting": "[2]", "result": "31.0 ± 27.5", "unit": "%"}, {"measurement": "Morphological change in the normal ear", "setting": "[3]; 2 hours after", "result": "collapse"}, {"measurement": "Morphological change in the normal ear", "setting": "[3]; 6 hours after", "result": "mild hydrops"}, {"measurement": "Time until exertion of effect after the oral administration", "setting": "[3]; oral", "result": "about 2 hours"}]}, {"compound": "OC[C@@H](O)[C@@H](O)[C@H](O)[C@@H](O)CO", "note": "[Sorbitol, sorbitol]", "values": [{"measurement": "Hardness of feces 0 (Muddy): number of animals", "setting": "[4]; [5]", "result": "2 and 3"}, {"measurement": "Hardness of feces 1 (Soft): number of animals", "setting": "[4]; [5]", "result": 2}, {"measurement": "Hardness of feces 3 (Normal): number of animals", "setting": "[4]; [5]", "result": 0}]}, {"compound": "OC[C@@H](O)[C@H](O)[C@@H](O)CO", "note": "[Xylitol, xylitol]", "values": [{"measurement": "Regression line IR-S vs IR-L: Y-intercept", "setting": "[2]", "result": 2.371}, {"measurement": "Regression line IR-S vs IR-L: slope", "setting": "[2]", "result": 1.208}, {"measurement": "IR-L (%) increase ratio of the length of Reissner's membrane", "setting": "[2]", "result": "48.6 ± 40.3", "unit": "%"}, {"measurement": "IR-S (%) increase ratio of the cross-sectional area of the scala media", "setting": "[2]", "result": "60.1 ± 48.9", "unit": "%"}, {"measurement": "Hardness of feces: Muddy (number of animals)", "setting": "[4]; [6]", "result": 0}, {"measurement": "Hardness of feces: Normal (number of animals)", "setting": "[4]; [6]", "result": 5}, {"measurement": "Hardness of feces: Slightly soft (number of animals)", "setting": "[4]; [6]", "result": 0}, {"measurement": "Hardness of feces: Soft (number of animals)", "setting": "[4]; [6]", "result": 0}, {"measurement": "Hardness of feces: Muddy (number of animals)", "setting": "[4]; [7]", "result": 0}, {"measurement": "Hardness of feces: Normal (number of animals)", "setting": "[4]; [7]", "result": 4}, {"measurement": "Hardness of feces: Slightly soft (number of animals)", "setting": "[4]; [7]", "result": 1}, {"measurement": "Hardness of feces: Soft (number of animals)", "setting": "[4]; [7]", "result": 0}, {"measurement": "Time after administration of the peak (most serious) diarrhea", "setting": "[4]; [8]", "result": "Three to four hours after the administration"}, {"measurement": "Time after administration when diarrhea / softening of feces started", "setting": "[4]; [8]", "result": 2, "unit": "h"}, {"measurement": "Time after administration when feces recovered to (almost) normal", "setting": "[4]; [8]", "result": 6, "unit": "h"}, {"measurement": "Hardness of feces: Muddy (number of animals)", "setting": "[4]; [9]", "result": 3}, {"measurement": "Hardness of feces: Normal (number of animals)", "setting": "[4]; [9]", "result": 0}, {"measurement": "Hardness of feces: Slightly soft (number of animals)", "setting": "[4]; [9]", "result": 1}, {"measurement": "Hardness of feces: Soft (number of animals)", "setting": "[4]; [9]", "result": 1}]}, {"compound": "O=C[C@H](O)[C@@H](O)[C@H](O)CO", "note": "[Xylose, xylose]", "values": [{"measurement": "Regression line IR-S vs IR-L: Y-intercept", "setting": "[2]", "result": 1.197}, {"measurement": "Regression line IR-S vs IR-L: slope", "setting": "[2]", "result": 1.364}, {"measurement": "IR-L (%) increase ratio of the length of Reissner's membrane", "setting": "[2]", "result": "29.7 ± 21.3", "unit": "%"}, {"measurement": "IR-S (%) increase ratio of the cross-sectional area of the scala media", "setting": "[2]", "result": "41.7 ± 30.1", "unit": "%"}, {"measurement": "Abdominal distension / gas by inspections and palpations", "setting": "[4]; [8]", "result": "mild or moderate flatulence and distension"}, {"measurement": "Hardness of feces: Muddy (number of animals)", "setting": "[4]; [9]", "result": 1}, {"measurement": "Hardness of feces: Normal (number of animals)", "setting": "[4]; [9]", "result": 0}, {"measurement": "Hardness of feces: Slightly soft (number of animals)", "setting": "[4]; [9]", "result": 1}, {"measurement": "Hardness of feces: Soft (number of animals)", "setting": "[4]; [9]", "result": 3}]}, {"compound": "OC[C@@H](O)[C@@H](O)[C@H](O)[C@H](O)CO", "note": "[mannitol]", "values": [{"measurement": "Hardness of feces 0 (Muddy): number of animals", "setting": "[4]; [5]", "result": 1}, {"measurement": "Hardness of feces 1 (Soft): number of animals", "setting": "[4]; [5]", "result": 2}, {"measurement": "Hardness of feces 2 (Slightly soft): number of animals", "setting": "[4]; [5]", "result": 1}, {"measurement": "Hardness of feces 3 (Normal): number of animals", "setting": "[4]; [5]", "result": 0}]}]}
